Test results from article PMC9403717, “Ruthenium complexes show potent inhibition of AKR1C1, AKR1C2, and AKR1C3 enzymes and anti-proliferative action against chemoresistant ovarian cancer cell line” (Frontiers in Pharmacology, 2022).
pIC50: −log10 of the molar value. “And” between values parts separate entries of the source, which are not always exact repeats. Equal values may be shown once.

system: COV362 cells; test: Cell proliferation assay (alamarBlue), chemoresistant ovarian cancer cell line COV362; assay type: cell-based, human; conditions: not given
Protocol: The cell line COV362 (CVCL_2,420) was originally established from a high-grade ovarian serous adenocarcinoma from a metastatic site in the pleural effusion ([van den Berg-Bakker et al., 1993]) and was purchased from ECACC (ECACC 07071910) as p37 on 13 October 2017. The growth medium for COV362 cells was DMEM (D5546; Sigma–Aldrich GmbH), with 10% FBS (F9665; Sigma–Aldrich GmbH) and 2 mM L-glutamine (G7513; Sigma–Aldrich GmbH). COV362 cells in passages p37 + 12 to p37 + 17 were used in this study and seeded at a concentration of 3.5 cells/ml × 10^4 cells/ml for proliferation studies and at a concentration of 5.3 × 10^5/ml for migration studies. The cell line OVCAR-4 (CVCL_1,627) is a high-grade serous ovarian adenocarcinoma cell line established from a patient refractory to cisplatin ([Johnson et al., 1997]). The cell line was purchased from Merck on 19 March 2021. The growth medium for OVCAR-4 cells was RPMI-1640 (Sigma R5586) supplemented with 2 mM glutamine (G7513; Sigma–Aldrich GmbH), 10% FBS (F9665; Sigma–Aldrich GmbH), 0.25 μg/ml insulin (I9278; Sigma–Aldrich GmbH). OVCAR-4 cells in passages p+6 to p+15 were used in this study and seeded at a concentration of 6 cells/ml × 10^4 cells/ml. The control cell line HIO80 (CVCL_E274) was obtained from Andrew K. Godwin (University of Kansas Medical Center, Kansas, United States) on 20 October 2017 as p+72. It was originally established from ovarian surface epithelium ([Yang et al., 2004]). HIO80 cells were grown in RPMI medium (R5886, Sigma–Aldrich GmbH) supplemented with 10% FBS (F9665; Sigma–Aldrich GmbH), 2 mm L-glutamine (G7513; Sigma–Aldrich GmbH) and 6.6 µg/ml insulin (I9278; Sigma–Aldrich GmbH). HIO80 cells in passages p72 + 8 to p72 + 19 were used in this study and seeded at a concentration of 2 × 10^4 cells/mL. HIO80 in passage +10 was authenticated by short tandem repeats (STR) profiling performed by ATCC on 22 February 2019. Cells were grown in a humidified atmosphere containing 5% CO2 at 37°C. All cell lines were negative for mycoplasma infection which was periodically tested using MycoAlert^TM mycoplasma detection kit (Lonza, Basel, Switzerland).
The effect of ruthenium compounds on the proliferation of ovarian cancer cell lines COV362 and OVCAR-4 and the control cell line HIO80 was analyzed using the cell proliferation reagent alamarBlue HS (A50101; Thermo Fisher Scientific) following the manufacturer’s instructions.
Cells were seeded in 96-well plates in 100 µL of medium and allowed to adhere and grow for 24 h. […] Cisplatin and carboplatin purchased from Sigma–Aldrich GmbH (cat. number: PHR1624, lot: LRAB7778) and (cat. number: C2538, lot: MKCK1243) were dissolved in sterile water. Working solutions were prepared by a serial dilution of stock solutions with a culture medium. After the initial incubation, cells were treated with ruthenium complexes, cisplatin, and carboplatin. A range of final concentrations between 0.001 and 300 µM were used for ruthenium complexes and cisplatin, and between 0.001 µM and 1 mM for carboplatin. After 48 h of incubation, plates were incubated with 20 µL of alamarBlue. After 4 h absorbance was measured with a BioTek microplate spectrophotometer at 570 nm, with the reference wavelength set at 600 nm. First, the background value of a well containing the active substance without cells was subtracted, then the average values for duplicates/triplicates were calculated. The absorbance of the well containing only untreated cells was used as a normalization control. The half-maximal […] concentration (IC50) was determined for all ruthenium complexes with a growth-inhibiting effect on cells by constructing a dose-response curve (Graph Pad Prism, Version 8.0).

Row | Compound | effect on proliferation (in words)
1 | C1N2CN3CN1CP(C2)C3.Cc1ccc(C(C)C)cc1.F[P-](F)(F)(F)(F)F.O=[N+]([O-])c1ccc([O][Ru+])c2ncccc12 [Compound 10, (η ^6-p-cymene)(nitroxolinato)(pta)ruthenium(II) hexafluorophosphate] | inactive

same assay, conditions: 48 h incubation

Row | Compound | pIC50
2 | Cc1ccc(C(C)C)cc1.O=C(C=C([O][Ru][Cl])c1ccc(I)cc1)C(F)(F)F [Compound 1] | 4.02
3 | C1N2CN3CN1CP(C2)C3.Cc1ccc(C(C)C)cc1.F[P-](F)(F)(F)(F)F.O=C(C=C([O][Ru+])c1ccc(I)cc1)C(F)(F)F [Compound 2] | 3.85
4 | CN(C)c1ccc(C(=CC(=O)C(F)(F)F)[O][Ru][Cl])cc1.Cc1ccc(C(C)C)cc1 [Compound 3, (η^6-p-cymene)chlorido(4,4,4-trifluoro-1-(4-(dimethylamino)phenyl)-1,3-butandionato)ruthenium(II)] | > 4.00 and 4.04
5 | Cc1ccc(C(C)C)cc1.O=C(C=C([O][Ru][Cl])c1ccc2c(c1)OCO2)C(F)(F)F [Compound 5] | 3.87
6 | C1N2CN3CN1CP(C2)C3.Cc1ccc(C(C)C)cc1.F[P-](F)(F)(F)(F)F.O=C(C=C([O][Ru+])c1ccc2c(c1)OCO2)C(F)(F)F [Compound 6] | 3.82
7 | Cc1ccc(C(C)C)cc1.[Cl-].[O-]c1c(I)cc(Cl)c2cccnc12.[Ru+2] [Compound 7] | 4.75
8 | C1N2CN3CN1CP(C2)C3.Cc1ccc(C(C)C)cc1.F[P-](F)(F)(F)(F)F.[O-]c1c(I)cc(Cl)c2cccnc12.[Ru+2] [Compound 8] | 4.42
9 | Cc1ccc(C(C)C)cc1.O=[N+]([O-])c1ccc([O][Ru][Cl])c2ncccc12 [Compound 9, (η ^6-p-Cymene) (nitroxolinato)chloridoruthenium (II)] | 4.67
10 | C1N2CN3CN1CP(C2)C3.Cc1ccc(C(C)C)cc1.F[P-](F)(F)(F)(F)F.O=[N+]([O-])c1ccc([O][Ru+])c2ncccc12 [Compound 10, (η ^6-p-cymene)(nitroxolinato)(pta)ruthenium(II) hexafluorophosphate] | < 3.70
